Patent US20170305922A1, “CARM1 INHIBITORS AND USES THEREOF” (Epizyme, Inc., priority 2014, published 2017)

Tests used:
Human CARM1 (PRMT4) = molecular target: T1, Human CARM1 (PRMT4) (Homo sapiens, UniProt Q86X55); test: CARM1 enzyme assay on peptide substrates (3H-SAM Flashplate); conditions: Biochemical assay; CARM1 0.25 nM, 3H-SAM 30 nM, peptide 250 nM; read-out: Biochem IC50
T1 construct: Flag-CARM1-His was eluted with 200 ug/ml FLAG peptide in buffer A; made in house; host or cells: HEK 293F cells infected with recombinant baculovirus (pFastBacMam)
T1 sequence (Q86X55 1-585 isoform Q86X55-1): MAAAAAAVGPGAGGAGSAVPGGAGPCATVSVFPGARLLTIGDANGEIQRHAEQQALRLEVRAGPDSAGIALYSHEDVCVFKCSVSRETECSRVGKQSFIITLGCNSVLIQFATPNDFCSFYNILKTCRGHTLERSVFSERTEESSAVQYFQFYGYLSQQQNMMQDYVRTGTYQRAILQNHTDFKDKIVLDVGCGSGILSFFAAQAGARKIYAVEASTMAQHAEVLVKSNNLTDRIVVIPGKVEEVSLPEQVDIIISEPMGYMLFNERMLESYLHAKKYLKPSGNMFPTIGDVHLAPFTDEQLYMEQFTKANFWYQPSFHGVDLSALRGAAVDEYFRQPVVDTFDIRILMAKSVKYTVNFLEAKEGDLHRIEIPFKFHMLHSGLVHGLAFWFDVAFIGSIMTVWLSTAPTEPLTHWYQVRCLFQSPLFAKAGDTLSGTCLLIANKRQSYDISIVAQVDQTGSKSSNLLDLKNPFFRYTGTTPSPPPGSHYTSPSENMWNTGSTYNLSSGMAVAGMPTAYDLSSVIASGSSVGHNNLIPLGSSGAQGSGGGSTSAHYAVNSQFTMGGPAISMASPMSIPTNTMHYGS
From the text: S-adenosylmethionine (SAM), S-adenosylhomocysteine (SAH), bicine, Tween20, dimethylsulfoxide (DMSO), bovine skin gelatin (BSG), sodium butyrate and Tris(2-carboxyethyl)phosphine hydrochloride solution (TCEP) were purchased from Sigma-Aldrich at the highest level of purity possible. ^3H-SAM was purchase from American Radiolabeled Chemicals with a specific activity of 80 Ci/mmol. 384-well streptavidin Flashplates were purchased from PerkinElmer.
Peptide representative of human histone H3 residues 16-30 was synthesized with an N-terminal linker-affinity tag motif and a C-terminal amide cap by 21st Century Biochemicals. […] The sequence was Biot-Ahx-[…]-amide and contained a monomethylated arginine at position 26 (SEQ ID NO.:1).
The gene sequence encoding isoform1 containing a deletion of amino acids 539-561 was amplified subsequently and subcloned into pFastBacMam (Viva Biotech).
Recombinant baculovirus were generated according to Bac-to-Bac kit instructions (Life Technologies). Protein over-expression was accomplished by infecting exponentially growing HEK 293F cell culture at 1.3×10^6 cell/ml with virus (MOI=10) in the presence of 8 mM sodium butyrate. Infections were carried out at 37° C. for 48 hours, harvested by centrifugation, and stored at −80° C. for purification.
Column was washed with 500 mM NaCl in buffer A and Flag-CARM1-His was eluted with 200 ug/ml FLAG peptide in buffer A. Pooled fractions were dialyzed in 20 mM Tris, 150 mM NaCl, 5% glycerol and 1 mM DTT, pH 7.8.
The assays were all performed in a buffer consisting of 20 mM Bicine (pH=7.6), 1 mM TCEP, 0.005% BSG, and 0.002% Tween 20, prepared on the day of use. Compounds in 100% DMSO (1 ul) were spotted into a polypropylene 384-well V-bottom plates (Greiner) using a Platemate Plus outfitted with a 384-channel head (Thermo Scientific). DMSO (1 ul) was added to Columns 11, 12, 23, 24, rows A-H for the maximum signal control and 1 ul of SAH, a known product and inhibitor of CARM1, was added to columns 11, 12, 23, 24, rows I-P for the minimum signal control. A cocktail (40 ul) containing the CARM1 enzyme was added by Multidrop Combi (Thermo-Fisher). The compounds were allowed to incubate with CARM1 for 30 min at room temperature, then a cocktail (10 ul) containing ^3H-SAM and peptide was added to initiate the reaction (final volume=51 ul). The final concentrations of the components were as follows: CARM1 was 0.25 nM, ^3H-SAM was 30 nM, peptide was 250 nM, SAH in the minimum signal control wells was 1 mM, and the DMSO concentration was 2%. The assays were stopped by the addition of non-radiolabeled SAM (10 ul) to a final concentration of 300 uM, which dilutes the ^3H-SAM to a level where its incorporation into the peptide substrate is no longer detectable. 50 ul of the reaction in the 384-well polypropylene plate was then transferred to a 384-well Flashplate and the biotinylated peptides were allowed to bind to the streptavidin surface for at least 1 hour before being washed once with 0.1% Tween20 in a Biotek ELx405 plate washer. The plates were then read in a PerkinElmer TopCount plate reader to measure the quantity of ^3H-labeled peptide bound to the Flashplate surface, measured as disintegrations per minute (dpm) or alternatively, referred to as counts per minute (cpm).
where dpm=disintegrations per minute, cmpd=signal in assay well, and min and max are the respective minimum and maximum signal controls.
where top and bottom are the normally allowed to float, but may be fixed at 100 or 0 respectively in a 3-parameter fit. The Hill Coefficient normally allowed to float but may also be fixed at 1 in a 3-parameter fit. Y is the % inhibition and X is the compound concentration.

[1] = system: asymmetric di-methyl PABP1 in RKO cells; test: RKO methylation assay: In Cell Western (ICW) for asymmetric di-methyl PABP1 (PABP1me2a); conditions: Homo sapiens, RKO, 48 h, Cellular-based (PABP1me2a) ICW (In Cell Western) assay
From the text: RKO adherent cells were purchased from ATCC (American Type Culture Collection), Manassas, Va., USA. DMEM/Glutamax medium, penicillin-streptomycin, heat inactivated fetal bovine serum, 0.05% trypsin and D-PBS were purchased from Life Technologies, Grand Island, N.Y., USA. Odyssey blocking buffer, 800CW goat anti-rabbit IgG (H+L) antibody, and Licor Odyssey infrared scanner were purchased from Licor Biosciences, Lincoln, Nebr., USA. Asymmetric di-methyl PABP1 antibody was purchased from Cell Signaling Technology, Danvers, Mass., USA. Methanol was purchased from VWR, Franklin, Mass., USA. 10% Tween 20 was purchased from KPL, Inc., Gaithersburg, Md., USA. Paraformaldehyde (PFA) was purchased from EM Sciences. DRAQ5 was purchased from Biostatus Limited, Leicestershire, UK.
RKO adherent cells were maintained in growth medium (DMEM/Glutamax medium supplemented with 10% v/v heat inactivated fetal bovine serum and 100 units/mL penicillin-streptomycin) and cultured at 37° C. under 5% CO2.
Cell treatment, In Cell Western (ICW) for detection of asymmetric di-methyl PABP1 and DNA content: RKO cells were seeded in assay medium at a concentration of 30,000 cells per mL to a poly-D-lysine coated 384 well culture plate (BD Biosciences 356697) with 50 μL per well. Compound (100 nL) from a 96-well source plate was added directly to 384 well cell plate. Plates were incubated at 37° C., 5% CO2 for 48 hours. After two days of incubation, plates were brought to room temperature outside of the incubator for ten minutes and blotted on paper towels to remove cell media. Cells were fixed for 20 minutes at room temperature by adding 50 ul of 8% PFA followed by aspiration of supernatant with the Biotek EL406 plate washer. Cells were then permeabilized by addition of 50 μL of ice cold 100% methanol directly to each well and incubated for 30 min at room temperature. After 30 min, plates were transferred to a Biotek EL406 plate washer and washed 2 times with 100 μL per well of wash buffer (1×PBS). Next 60 μL per well of Odyssey blocking buffer (Odyssey Buffer with 0.1% Tween 20 (v/v)) were added to each plate and incubated 1 hour at room temperature. Blocking buffer was removed and 20 μL per well of primary antibody was added (asymmetric-methyl PABP1) diluted 1:400 in Odyssey buffer with 0.1% Tween 20 (v/v)) and plates were incubated overnight (16 hours) at 4° C. Plates were washed 5 times with 100 μL per well of wash buffer. Next 20 μL per well of secondary antibody was added (1:800 800CW goat anti-rabbit IgG (H+L) antibody, 1:2000 DRAQ5 in Odyssey buffer with 0.1% Tween 20 (v/v)) and incubated for 1 hour at room temperature. The plates were washed 5 times with 100 μL per well wash buffer then 2 times with 100 μL per well of water. Plates were allowed to dry at room temperature then imaged on the Licor Odyssey machine which measures integrated intensity at 700 nm and 800 nm wavelengths. Both 700 and 800 channels were scanned.
First, the ratio for each well was determined by:
Each plate included fourteen control wells of DMSO only treatment (minimum inhibition) as well as fourteen control wells for maximum inhibition treated with 20 μM of a reference compound. The average of the ratio values for each control type was calculated and used to determine the percent […] for each test well in the plate. Reference compound was serially diluted three-fold in DMSO for a total of nine test concentrations, beginning at 20 μM.
Percent inhibition was determined and IC50 curves were generated using triplicate wells per concentration of compound.

Row | Structure (SMILES) | IC50 (Human CARM1 (PRMT4)) | IC50 [1]
1 | CNC[C@@H](O)COc1ccc(Cl)c(-c2nc(-c3c(C)noc3C)c(C)c(N3Cc4ccc(O[C@@H]5CCOC5)nc4C3)n2)c1 [Example 253] | 2.36 nM | 29.2 nM
2 | CNC[C@@H](O)COc1ccc(Cl)c(-c2nc(-c3c(C)c(Cl)nn3C)c(C)c(N3Cc4cccnc4C3)n2)c1 [Example 84] | 1.6 nM | 28 nM
3 | CNC[C@@H](O)COc1ccc(Cl)c(-c2nc(-c3c(C)noc3C)c(C)c(N3CC4(CC(O)C4)C3)n2)c1 [Example 246] | 6.7 nM | 352 nM
4 | CNC[C@@H](O)COc1ccc(Cl)c(-c2nc(-c3c(C)noc3C)c(C)c(N3CC4(CCC(F)CC4)C3)n2)c1 [Example 20] | 7.4 nM | 125 nM
5 | CNC[C@@H](O)COc1ccc(C(F)(F)F)c(-c2nc(-c3c(C)noc3C)c(C)c(N3Cc4cccnc4C3)n2)c1 [Example 24] | 5.4 nM | 188 nM
6 | CCN(C)c1ncc2c(n1)CN(c1nc(-c3cc(OC[C@H](O)CNC)ccc3Cl)nc(-c3c(C)c(Cl)nn3C)c1C)C2 [Example 159] | 2 nM | 39 nM
7 | CNC[C@@H](O)COc1ccc(Cl)c(-c2nc(-c3c(C)noc3C)c(C)c(N3Cc4cnn(C5CCOCC5)c4C3)n2)c1 [Example 135] | 4.6 nM | 93 nM
8 | CNC[C@@H](O)COc1ccc(Cl)c(-c2nc(-c3cnn(C4CC4)c3)c(C)c(-c3c(C)noc3C)n2)c1 [Example 103] | 8.1 nM | 130 nM
9 | CNC[C@@H](O)COc1ccc(Cl)c(-c2nc(-c3c(C)noc3C)c(C)c(N3CC4=C(CN(C(=O)OC)C4)C3)n2)c1 [Example 55] | 3.6 nM | 13 nM
10 | CNC[C@@H](O)COc1ccc(Cl)c(-c2nc(-c3c(C)noc3C)c(C)c(N3C[C@]4(C)CN(C(=O)OC)C[C@]4(C)C3)n2)c1 [Example 65] | 7.8 nM | 234 nM
11 | CNC[C@@H](O)COc1ccc(Cl)c(-c2nc(-c3c(C)noc3C)c(C)c(N3CC4(CCN(C5COC5)CC4)C3)n2)c1 [Example 64] | 11 nM | 111 nM

More lines, in order of falling IC50 (Human CARM1 (PRMT4)), values ahead:

Row | IC50 (Human CARM1 (PRMT4)) | IC50 [1] | Structure (SMILES)
12 | 10.9 nM | 394 nM | CNC[C@@H](O)COc1ccc(Cl)c(-c2nc(-c3c(C)noc3C)c(C)c(N3CC4(CCC(S(C)(=O)=O)CC4)C3)n2)c1 [Example 97]
13 | 8.97 nM | 121 nM | CNC[C@@H](O)COc1ccc(Cl)c(-c2nc(-c3c(Br)cnn3C)c(C)c(N3CC4(CN(CC(F)(F)F)C4)C3)n2)c1 [Example 267]
14 | 7.7 nM | 46 nM | CNC[C@@H](O)COc1ccc(Cl)c(-c2nc(-c3c(C)noc3C)c(C)c(N3Cc4cn(C)nc4C3)n2)c1 [Example 129]
15 | 7.7 nM | 399 nM | CNC[C@@H](O)COc1ccc(Cl)c(-c2nc(-c3c(C)noc3C)c(C)c(N3CC4(CCN(S(C)(=O)=O)C4)C3)n2)c1 [Example 49]
16 | 7.3 nM | 230 nM | CNC[C@@H](O)COc1ccc(Cl)c(-c2nc(-c3c(C)noc3C)c(C)c(N3CC4(CCN(S(C)(=O)=O)CC4)C3)n2)c1 [Example 52]
17 | 6.51 nM | 193 nM | CNC[C@@H](O)COc1ccc(Cl)c(-c2nc(-c3c(C)noc3C)c(C)c(N3CC(C)(COC)C3)n2)c1 [Example 251]
18 | 5.2 nM | 175 nM | CNC[C@@H](O)COc1ccc(Cl)c(-c2nc(-c3c(C)noc3C)c(C)c(N3Cc4ccncc4C3C)n2)c1 (some centres unmarked) [Example 124]
19 | 4.4 nM | 45 nM | CNC[C@@H](O)COc1ccc(Cl)c(-c2nc(-c3c(C)noc3C)c(C)c(N3CC4=C(CN(CC(F)F)C4)C3)n2)c1 [Example 54]
20 | 2.2 nM | 55 nM | CNC[C@@H](O)COc1ccc(Cl)c(-c2nc(-c3c(C)noc3C)c(C)c(N3Cc4nccc(C)c4C3)n2)c1 [Example 164]
21 | 2.1 nM | 34 nM | CNC[C@@H](O)COc1ccc(Cl)c(-c2nc(-c3c(C)noc3C)c(C)c(N3Cc4cnc(OC)cc4C3)n2)c1 [Example 169]
22 | 1.8 nM | 13 nM | CNC[C@@H](O)COc1ccc(Cl)c(-c2nc(-c3c(C)noc3C)c(C)c(N3Cc4cnc(N5CC[C@@H]5C)nc4C3)n2)c1 [Example 195]
